{"source": "ChEMBL document CHEMBL1201862", "about": "“PubChem BioAssay data set” (2004)", "assay_in_all_cases": "NCI-60 cell line screen, 48 h", "key": {"[1]": {"test_system": "A498"}, "[2]": {"test_system": "COLO 205"}, "[3]": {"test_system": "SF-268"}, "[4]": {"test_system": "MDA-MB-435"}, "[5]": {"test_system": "NCI-H23"}, "[6]": {"test_system": "HL-60"}, "[7]": {"test_system": "UACC-62"}, "[8]": {"test_system": "RXF 393"}, "[9]": {"test_system": "OVCAR-4"}, "[10]": {"test_system": "SW-620"}, "[11]": {"test_system": "UO-31"}, "[12]": {"test_system": "SF-539"}, "[13]": {"test_system": "BT-549"}, "[14]": {"test_system": "HOP-62"}, "[15]": {"test_system": "SK-MEL-2"}, "[16]": {"test_system": "SNB-19"}, "[17]": {"test_system": "NCI/ADR-RES"}, "[18]": {"test_system": "EKVX"}, "[19]": {"test_system": "SNB-75"}, "[20]": {"test_system": "M14"}, "[21]": {"test_system": "SK-OV-3"}, "[22]": {"test_system": "SF-295"}, "[23]": {"test_system": "NCI-H460"}, "[24]": {"test_system": "OVCAR-3"}, "[25]": {"test_system": "NCI-H522"}, "[26]": {"test_system": "SK-MEL-5"}, "[27]": {"test_system": "HOP-92"}, "[28]": {"test_system": "HCT-116"}, "[29]": {"test_system": "RPMI-8226"}, "[30]": {"test_system": "A549"}, "[31]": {"test_system": "IGROV-1"}, "[32]": {"test_system": "ACHN"}, "[33]": {"test_system": "K562"}, "[34]": {"test_system": "UACC-257"}, "[35]": {"test_system": "T47D"}, "[36]": {"test_system": "CAKI-1"}, "[37]": {"test_system": "HCT-15"}, "[38]": {"test_system": "TK-10"}, "[39]": {"test_system": "HT-29"}, "[40]": {"test_system": "786-0"}, "[41]": {"test_system": "U-251"}, "[42]": {"test_system": "NCI-H226"}, "[43]": {"test_system": "KM12"}, "[44]": {"test_system": "CCRF-CEM"}, "[45]": {"test_system": "HCC 2998"}, "[46]": {"test_system": "SR"}, "[47]": {"test_system": "MDA-N"}, "[48]": {"test_system": "SN12C"}, "[49]": {"test_system": "Hs-578T"}, "[50]": {"test_system": "OVCAR-5"}, "[51]": {"test_system": "OVCAR-8"}, "[52]": {"test_system": "DU-145"}, "[53]": {"test_system": "MOLT-4"}, "[54]": {"test_system": "SK-MEL-28"}, "[55]": {"test_system": "Malme-3M"}, "[56]": {"test_system": "PC-3"}, "[57]": {"test_system": "MDA-MB-231"}}, "note": "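A five-concentration, 48-hour dose response in 96-well plates underlies each endpoint, interpolated linearly between surrounding concentrations. GI50 = concentration required for 50% inhibition of growth.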 Active and inactive are the calls of the source. Rule as the data show it: active = GI50 up to about 1.1 µM and inactive = higher."}
{"smiles": "Cc1ccc(N2CCC3(CC2)OCCO3)cc1", "values": [{"measurement": "GI50", "setting": "[1]", "result": "> 100 µM (inactive)"}, {"measurement": "GI50", "setting": "[2]", "result": "> 100 µM (inactive)"}, {"measurement": "GI50", "setting": "[3]", "result": "> 100 µM (inactive)"}, {"measurement": "GI50", "setting": "[4]", "result": "> 100 µM (inactive)"}, {"measurement": "GI50", "setting": "[5]", "result": "> 100 µM (inactive)"}, {"measurement": "GI50", "setting": "[6]", "result": "> 100 µM (inactive)"}, {"measurement": "GI50", "setting": "[7]", "result": "> 100 µM (inactive)"}, {"measurement": "GI50", "setting": "[8]", "result": "> 100 µM (inactive)"}, {"measurement": "GI50", "setting": "[9]", "result": "> 100 µM (inactive)"}, {"measurement": "GI50", "setting": "[10]", "result": "> 100 µM (inactive)"}, {"measurement": "GI50", "setting": "[11]", "result": "> 100 µM (inactive)"}, {"measurement": "GI50", "setting": "[12]", "result": "> 100 µM (inactive)"}, {"measurement": "GI50", "setting": "[13]", "result": "> 100 µM (inactive)"}, {"measurement": "GI50", "setting": "[14]", "result": "> 100 µM (inactive)"}, {"measurement": "GI50", "setting": "[15]", "result": "> 100 µM (inactive)"}, {"measurement": "GI50", "setting": "[16]", "result": "> 100 µM (inactive)"}, {"measurement": "GI50", "setting": "[17]", "result": "> 100 µM (inactive)"}, {"measurement": "GI50", "setting": "[18]", "result": "> 100 µM (inactive)"}, {"measurement": "GI50", "setting": "[19]", "result": "> 100 µM (inactive)"}, {"measurement": "GI50", "setting": "[20]", "result": "> 100 µM (inactive)"}, {"measurement": "GI50", "setting": "[21]", "result": "> 100 µM (inactive)"}, {"measurement": "GI50", "setting": "[22]", "result": "> 100 µM (inactive)"}, {"measurement": "GI50", "setting": "[23]", "result": "> 100 µM (inactive)"}, {"measurement": "GI50", "setting": "[24]", "result": "> 100 µM (inactive)"}, {"measurement": "GI50", "setting": "[25]", "result": "> 100 µM (inactive)"}, {"measurement": "GI50", "setting": "[26]", "result": "> 100 µM (inactive)"}, {"measurement": "GI50", "setting": "[27]", "result": "> 100 µM (inactive)"}, {"measurement": "GI50", "setting": "[28]", "result": "> 100 µM (inactive)"}, {"measurement": "GI50", "setting": "[29]", "result": "> 100 µM (inactive)"}, {"measurement": "GI50", "setting": "[30]", "result": "> 100 µM (inactive)"}, {"measurement": "GI50", "setting": "[31]", "result": "> 100 µM (inactive)"}, {"measurement": "GI50", "setting": "[32]", "result": "> 100 µM (inactive)"}, {"measurement": "GI50", "setting": "[33]", "result": "> 100 µM (inactive)"}, {"measurement": "GI50", "setting": "[34]", "result": "> 100 µM (inactive)"}, {"measurement": "GI50", "setting": "[35]", "result": "> 100 µM (inactive)"}, {"measurement": "GI50", "setting": "[36]", "result": "> 100 µM (inactive)"}, {"measurement": "GI50", "setting": "[37]", "result": "> 100", "unit": "µM"}, {"measurement": "GI50", "setting": "[38]", "result": "> 100 µM (inactive)"}, {"measurement": "GI50", "setting": "[39]", "result": "> 100 µM (inactive)"}, {"measurement": "GI50", "setting": "[40]", "result": "> 100 µM (inactive)"}, {"measurement": "GI50", "setting": "[41]", "result": "> 100 µM (inactive)"}, {"measurement": "GI50", "setting": "[42]", "result": "> 100 µM (inactive)"}, {"measurement": "GI50", "setting": "[43]", "result": "> 100 µM (inactive)"}, {"measurement": "GI50", "setting": "[44]", "result": "> 100 µM (inactive)"}, {"measurement": "GI50", "setting": "[45]", "result": "> 100 µM (inactive)"}, {"measurement": "GI50", "setting": "[46]", "result": "> 100 µM (inactive)"}, {"measurement": "GI50", "setting": "[47]", "result": "> 100 µM (inactive)"}, {"measurement": "GI50", "setting": "[48]", "result": "> 100 µM (inactive)"}, {"measurement": "GI50", "setting": "[49]", "result": "> 100 µM (inactive)"}, {"measurement": "GI50", "setting": "[50]", "result": "> 100 µM (inactive)"}, {"measurement": "GI50", "setting": "[51]", "result": "> 100 µM (inactive)"}, {"measurement": "GI50", "setting": "[52]", "result": "> 100 µM (inactive)"}, {"measurement": "GI50", "setting": "[53]", "result": "> 100 µM (inactive)"}, {"measurement": "GI50", "setting": "[54]", "result": "> 100 µM (inactive)"}, {"measurement": "GI50", "setting": "[55]", "result": "> 100 µM (inactive)"}, {"measurement": "GI50", "setting": "[56]", "result": "> 100 µM (inactive)"}, {"measurement": "GI50", "setting": "[57]", "result": "> 100 µM (inactive)"}]}
